Data set [1] in a line: UV-vis absorption and emission measurements in aqueous buffer. To be noted: for molar extinction coefficient: PBS, glutathione 2 mM, PEG-400 40% v/v. It counts as physicochemical. As for the experimental part: UV-vis absorption and emission measurements. FCP-1 stock solution in DMSO (5 mM) was prepared, aliquoted and stored at […]. For each spectroscopic measurement, a fresh aliquot was diluted to 500 μM by DMSO and further diluted with PBS containing 2 mM GSH/PEG-400 mixture (3:2, v/v) to prepare the sensing solution with 5 μM of FCP-1. The sensing solution was pre-incubated in a water bath at 37° C., and then [Cu(CH3CN)](PF6) in MeCN or other metal ions in H2O was added. The solution mixture was kept at 37° C. and taken out for UV-vis absorption or emission spectroscopic measurements in quartz cuvette at predetermined time intervals. Emission spectra were corrected using coumarin 153 as secondary emission standard (4). Photoluminescence quantum yield (PLQY) was determined using fluorescein in 0.1 M NaOH solution (0.95; λex=496 nm). FRET efficiency from the fluorescein moiety to rhodamine moiety of FCP-1 was estimated by [1−(PLQY of FCP-1/PLQY of FL-TPA)].
FCP-1 in PBS buffer containing glutathione (2 mM) and PEG-400 (40%, v/v) was evaluated. […] The first two absorption maxima corresponded to the absorption of the fluorescein moiety, as similar absorption maxima at 460 and 489 nm were found in the absorption spectra of FL-TPA (FIG. 4), whereas the lowest energy absorption at 552 nm originated from the rhodamine moiety (FIG. 4). […] Together with the significant contribution of the lower-energy fluorescence from the excitation at 450-500 nm, which is in the region of FL-TPA absorption (FIG. 6), the data support the occurrence of FRET from the fluorescein donor to the rhodamine acceptor. Using FL-TPA as a reference FRET donor compound (FIG. 7) with assumption that quenching of donor fluorescence originated only from the FRET process, the FRET efficiency in the FCP-1 cassette is estimated to be 84%.

Data set [2] has as its system labile Cu(I) in Ctr1^−/− MEFs. Put plainly: Confocal fluorescence imaging of labile Cu(I) in Ctr1-/- MEFs. It counts as cell-based, mouse. On the procedure: (A) Confocal fluorescence microscopy images of Ctr1^+/+ MEFs and Ctr1^−/− MEFs treated with solvent control, CuCl2 (100 or 300 μM) or BCS (500 μM) in complete medium for 8 h, washed with complete medium and PBS, incubated with FCP-1 (5 μM) in DPBS for 45 min, and then imaged with λex=458 nm. (B) Average cellular ratiometric emission ratios of FCP-1, Fgreen/Forange, as determined from experiments performed in triplicate. (C) Total cellular ^63Cu levels were determined by ICP-MS experiments (with normalization of different cell numbers by total cellular ^31P level). (D) Confocal fluorescence microscopy images of Ctr1^+/+ MEFs and Ctr1^−/− MEFs incubated with FL-TPA (5 μM) in DPBS for 45 min. The cells were then imaged with λex=488 nm. (E) Average cellular fluorescence intensity of FL-TPA, FFL-TPA, determined from experiments performed in triplicate with λex=488 nm. Error bars denote SD (n=3). *p<0.05, **p<0.01 and ***p<0.001.
Cell culture. Following cell cultures were grown: Human embryonic kidney (HEK 293T) cells were maintained in Dulbecco's Modified Eagle Medium (DMEM) supplemented with 10 vol % fetal bovine serum (FBS), 1 vol % GlutaMax (Gibco) and 1 vol % non-essential amino acids (NEAA, Gibco). Ctrl1^+/+ and Ctr1^−/− MEF cells were maintained in DMEM with 10 vol % FBS, 1 vol % non-essential amino acids, 1 vol % sodium pyruvate and 0.1 vol % 2-mercaptoethanol or DMEM supplemented with 10 vol % FBS and 1× Penicillin-Streptomycin. Human cervical epithelial carcinoma (HeLa) was maintained in DMEM medium supplemented with 1 vol % GlutaMAX and 10 vol % FBS. […]
Confocal fluorescence microscopy imaging. For confocal fluorescence imaging experiments of HEK293T, MEF Ctr1^+/+ and Ctr1^−/− and HeLa cells, the cells were plated on 8-well Lab Tek borosilicate chambered coverglass slides (Nunc), and allowed to grow to ca. 60% confluency before performing the cell imaging experiments. […] For quantification, a threshold value was set as background and the average intensity of the whole image was measured by ImageJ. […]

Where “and” joins values, the source holds several entries; their conditions need not be identical. Equal entries are not always repeated.

With `CC[N+](CC)=c1ccc2c(-c3ccccc3C(=O)O)c3ccc(N4CCN(Cc5cccc(CN(Cc6ccccn6)Cc6cccc(COc7ccc8c(-c9ccccc9C(=O)OC)c9ccc(=O)cc-9oc8c7)n6)n5)CC4)cc3oc-2c1` [FCP-1], the FRET efficiency in data set [1] (FL-TPA as reference FRET donor, 1−(PLQY of FCP-1/PLQY of FL-TPA)) worked out at 84%. For the same molecule, the absorption maxima in data set [1] (PBS buffer containing glutathione (2 mM) and PEG-400 (40%, v/v)) is 465 nm and 493 nm and 552 nm. In addition, the values for the molar extinction coefficient in data set [1] (at 465 nm), in data set [1] (at 493 nm) and in data set [1] (at 552 nm) were 20,000 M^−1 cm^−1, 22,100 M^−1 cm^−1 and 40,000 M^−1 cm^−1, respectively. In addition, the emission wavelength in data set [1] (photoexcitation at 458 nm) is 526 nm and 576 nm. The “cellular viability by nuclear stain DRAQ5” value in data set [2] (Ctr1−/− MEFs (FIG. 14)) is reported as “cellular viability was maintained”. Besides, the “Fgreen/Forange ratio after CuCl2” value in data set [2] (Ctr1−/− MEFs incubated with CuCl2) is recorded as “no statistically significant changes”. In addition, the “Fgreen/Forange ratio after BCS” value in data set [2] (Ctr1−/− MEFs, BCS (500 μM)) is reported as “reduction in Fgreen/Forange ratio”.
